Procedure: The solubility of propyl gallate (PG) in molten cyclododecanol (CD) was studied. […] Here, temperature indicating members were prepared by adding cylododecanol (CD) in an amount permitting dissolution of 8 times the amount (Example 3), 4 times the amount (Example 4), twice the amount (Example 5), 1.2 times the amount (Example 6) and 0.8 time the amount (Example 7) of 1 part by weight of propyl gallate (PG), respectively. […] As comparative examples, a temperature indicating material free of cyclododecanol (CD) and that containing 5 parts by weight of 1-docosanol, which is a linear saturated alcohol, instead of cyclododecanol (CD) were prepared in Comparative Example 4 and Comparative Example 5, respectively.

Compound | Solubility | Solubility of propyl gallate (PG) in molten cyclododecanol (CD)
CCCOC(=O)c1cc(O)c(O)c(O)c1 [PG, propyl gallate] | 8 | at least 0.8 g
CC(C)(c1ccc(O)cc1)c1ccc(O)cc1 [HBA, bisphenol A] | 3 | 
O=C(c1ccc(O)cc1)c1ccc(O)c(O)c1O [Example 2344, 2,3,4,4′-tetrahydroxybenzophenone] | 2 | 
CCCCCCCCCCCCOC(=O)c1cc(O)c(O)c(O)c1 [LG, lauryl gallate] | 10 | 

Reference: patent US6479293B1, “Temperature indicating material and temperature monitoring member” (Toshiba Tec Kabushiki Kaisha, priority 1999, dated 2002)
